Data taken from US12239686B2, “Immune checkpoint inhibitor combinations” (LYTIX BIOPHARMA AS, priority 2014, dated 2025).
Non-standard residues stand in square brackets, D forms with d. Residues, ends and D or L forms follow the SMILES beside them. Dip = N[C@H](C(=O)O)C(c1ccccc1)c1ccccc1

Legend:
IGROV-1/CDDP = assay type: cell-based, human
Experimental: (§1) Tumor cells were grown as adherent monolayers or as suspensions at 37° C. in a humidified atmosphere (5% CO2, 95% air). The culture medium was RPMI 1640 containing 2 mM L-glutamine (Lonza, Belgium) and supplemented with 10% fetal bovine serum (FBS, Lonza). For experimental use, the adherent cells were detached from the culture flask by a 5-minute treatment with trypsin-versene (Lonza), diluted in Hanks' medium without calcium or magnesium (Lonza) and neutralized by addition of complete culture medium. Cells were counted in a hemocytometer and their viability was assessed by 0.25% trypan blue exclusion.
(§2) Tumor cells were plated in 96-well flat-bottom microtitration plates (Nunc, Dutscher, Brumath, France) and incubated at 37° C. for 24 hours before treatment in 190 μl of drug-free culture medium supplemented or not with 10% FBS for adherent or suspension growing cell lines, respectively.
(§3) The adherent cell lines were washed once with 200 μl FBS-free culture medium before treatment. Tumor cells were incubated for 4 hours with 10 concentrations of compounds in ¼ dilution step with a top dose of 400 μM (range 4×10^−4 to 4×10^−10 M), with 1% (final concentration) Triton X-100 as positive control and FBS-free culture medium as negative control. The cells (190 μl) were incubated in a 200 μl final volume of FBS-free culture medium containing test substances at 37° C. under 5% CO2.
(§4) Three independent experiments were performed, each concentration being tested in quadruplicate. Control cells were treated with vehicle alone. At the end of treatments, the cytotoxic activity was evaluated by a MTS assay (see § 3.3).
(§5) Like MTT, MTS is bioreduced by cells into a formazan product that is directly soluble in culture medium without processing, unlike MTT.
(§6) At the end of the cells treatment, 40 μl of a 0.22 μm filtered freshly combined solution of MTS (20 ml at 2 mg/ml, Ref G1111, Batch 235897, Exp 03/2009, Promega, Charbonnières, France) and PMS (1 ml at 0.92 mg/ml, Ref P9625, Batch 065K0961, Sigma) in Dulbecco's Phosphate Buffered Saline (DPBS, Ref 17-513Q, Batch 6MB0152, Cambrex), were added in each well. Culture plates were incubated for 2 h at 37° C. Absorbency (OD) were measured at 490 nm in each well using VICTOR^3TM 1420 multilabeled counter (Wallac, PerkinElmer, Courtaboeuf, France).
(§7) [formula] • The OD values are the mean of 4 experimental measurements. • IC50: drug concentration to obtain a 50% inhibition of cell proliferation.
(§8) The dose-response curves were plotted using XLFit 3 (IDBS, United Kingdom). The IC50 determination values were calculated using the XLFit 3 software from semi-log curves. Individual IC50 determination values as well as mean and SD values were generated.
(§9) Resistance index was calculated using the following formula: […]
(§10) Resistance index was calculated for each compound for each couple of sensitive and resistant cell lines. Individual resistance index was calculated when IC50 values of both sensitive and corresponding resistant cell lines were determined within same experiment. In addition, resistance index was also calculated ratio of mean IC50 values obtained during three independent experiments.

MCF-7/mdr = assay type: cell-based, human
Experimental: as §1, §2, §3, §4, §5, §6, §7, §8, §9, §10

HL-60/ADR = assay: In vitro cytotoxic activity, MTS assay; resistance index; assay type: cell-based, human; settings: HL-60/ADR vs sensitive HL-60 (doxorubicin resistance)
Experimental: as §1, §2, §3, §4, §5, §6, §7, §8, §9, §10

A375 cells = assay: Confocal microscopy, fluorescence-labeled peptide internalization; assay type: cell-based, human; settings: 1.5 and 3 μM
Experimental: Fixed cells, fluorescence-labeled peptide-Subconfluential A375 cells were seeded at 8,000 cells/well as above, and transfected on the second day using the Lipofectamine LTX with Plus transfection reagents (Invitrogen) following the manufacturer's protocol. The mitochondria were labeled using the pDsRed2-Mito, and the nucleus was labeled using the GFP-Histon2B plasmid (Imaging Platform, University of Tromsø). A day after transfection, cells were washed twice with serum-free RPMI, and treated at different concentration and incubation periods with LTX-315 Pacific Blue or LTX-328 Pacific Blue.
Control cells were treated with unlabeled LTX-315 and also with serum-free RPMI only. After incubation, cells were fixed with 4% paraformaldehyde in PBS, and the wells were covered with Prolong Gold antifade (Invitrogen). Cells were further analyzed by use of a Leica TCS SP5 confocal microscope, with a […] objective. Pacific Blue, GFP and Ds Red were excited using UV, with 488 and 561 lasers, and fluorescence channels were sequentially detected using the following band passes: UV: 420-480 nm (with attenuation), 488: 501-550 nm and 561: 576-676 nm.

[1] = test system: murine A20 B-cell lymphoma; assay: Murine A20 B-cell lymphoma tumours in mice, intratumoural treatment; assay type: in vivo; settings: for Mean tumour size (mm^2) at day 1: prior to start of treatment
Experimental: The administration took place by intratumoural injection of LTX-315 dissolved in sterile saline.
The mice were divided into four groups (see Table 8 below for details). The intratumoural treatment was initiated when the tumours had reached the desired size of approximately 5 mm in diameter (minimum of 20 mm^2).
Three dose levels of LTX-315, 1 mg (Group 1), 0.5 mg (Group 2) and 0.25 mg (Group 3) per injection, were investigated. The volume was 50 μl for all injections. LTX-315 was dissolved in sterile 0.9% NaCl water solution. This vehicle was used as control (Group 4). All four groups received three injections.
A calliper was used for tumour size measurements and weighing and physical examination were used as health control.

human A547 cells = assay: TEM, mitochondrial membrane; assay type: cell-based; settings: 10 μg/ml, 60 minutes
Experimental: FIG. 16 LTX-315 disintegrates the mitochondria membrane. TEM images of FIG. 16a: human A547 melanoma cells treated with LTX-315 (10 μg/ml) for 60 minutes compared to FIG. 16b: control cells.

[2] = Group 1, 1 mg intratumoural days 1,2,3
[3] = Group 2, 0.5 mg intratumoural days 1,2,3
[4] = Group 3, 0.25 mg intratumoural days 1,2,3

## NCCCC[C@H](NC(=O)[C@@H](NC(=O)[C@H](Cc1c[nH]c2ccccc12)NC(=O)[C@H](CCCCN)NC(=O)[C@H](CCCCN)NC(=O)[C@H](Cc1c[nH]c2ccccc12)NC(=O)[C@H](Cc1c[nH]c2ccccc12)NC(=O)[C@H](CCCCN)NC(=O)[C@@H](N)CCCCN)C(c1ccccc1)c1ccccc1)C(N)=O [LTX-315, K-K-W-W-K-K-W-Dip-K-NH2] (H-KKWWKKW[Dip]K-NH2)
IGROV-1/CDDP; IGROV-1/CDDP vs IGROV-1 (cisplatin resistance)
  Resistance index (RI): 0.50
IGROV-1/CDDP; IGROV-1/CDDP, resistant
  IC50: 3190 nM
MCF-7/mdr; MCF-7/mdr vs sensitive MCF-7 (doxorubicin resistance)
  Resistance index (RI): 1.12
MCF-7/mdr; MCF-7/mdr, resistant
  IC50: 1960 nM
HL-60/ADR
  Resistance index (RI): 1.45
A375 cells
  internalization of Pacific Blue-labeled peptide: showed an accumulation around the mitochondria after 30 minutes of incubation but was not detected in the cell nucleus
[1]; [2]
  Mean tumour size (mm^2) on day 4: 0 mm^2
  Mean tumour size (mm^2) on day 9: 3.70 ± 2.40 mm^2
  Mean tumour size (mm^2) on day 14: 12.43 ± 7.87 mm^2
  Mean tumour size (mm^2) at day 1: 25.82 ± 0.80 mm^2
[1]; Group 1, 1 mg x3
  Relapse of Tumour: 25%
[1]; Group 1, 1 mg x3, n=7
  Free of Tumour at end of Follow-Up: 42.8%
  Tumour Response: complete response: 57.2%
  Tumour Response: partial response: 42.8%
[1]; Group 1, optimal dose 1 mg x3
  treated mice with a complete tumour response: 3 of 7
[1]; [3]
  Mean tumour size (mm^2) on day 4: 0 mm^2
  Mean tumour size (mm^2) on day 9: 11.41 ± 4.69 mm^2
  Mean tumour size (mm^2) on day 14: 61.08 ± 23.84 mm^2
  Mean tumour size (mm^2) at day 1: 22.03 ± 0.63 mm^2
[1]; Group 2, 0.5 mg x3
  Relapse of Tumour: 0%
[1]; Group 2, 0.5 mg x3, n=7
  Free of Tumour at end of Follow-Up: 28.57%
  Tumour Response: complete response: 28.57%
[1]; [4]
  Mean tumour size (mm^2) on day 4: 20.60 ± 5.71 mm^2
  Mean tumour size (mm^2) on day 9: 68.49 ± 12.74 mm^2
  Mean tumour size (mm^2) on day 14: 69.42 ± 17.70 mm^2
  Mean tumour size (mm^2) at day 1: 21.25 ± 0.64 mm^2
[1]; Group 3, 0.25 mg x3, n=9
  Tumour Response: complete response: 0%
[1]; all LTX-315 groups, apart from wound formation
  adverse events or toxic effects: no other adverse events or toxic effects were observed
Human A547 cells
  effect on the mitochondrial membrane (TEM): disintegration of the mitochondrial membrane
